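Growth conditions: 96-well plates. Treatment: test compound, 48 hours, 5 concentrations. Analysis: linear interpolation between bracketing concentrations; unreached endpoints set to highest concentration. At the GI50, growth is halved.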 The source made the active and inactive calls. Rule as the data show it: active = GI50 up to about 1.1 µM and inactive = higher.
Key:
Assay in all cases: NCI tumour cell line growth inhibition, 48 h
SNB-78 = system: SNB-78
OVCAR-5 = system: OVCAR-5
UO-31 = system: UO-31
XF498 = system: XF498
U-251 = system: U-251
HOP-92 = system: HOP-92
MOLT-4 = system: MOLT-4
HCT-116 = system: HCT-116
SK-OV-3 = system: SK-OV-3
K562 = system: K562
NCI-H460 = system: NCI-H460
EKVX = system: EKVX
Malme-3M = system: Malme-3M
OVCAR-3 = system: OVCAR-3
KM-20L2 = system: KM-20L2
SNB-19 = system: SNB-19
M14 = system: M14
LOX IMVI = system: LOX IMVI
ACHN = system: ACHN
CAKI-1 = system: CAKI-1
HOP-62 = system: HOP-62
IGROV-1 = system: IGROV-1
KM12 = system: KM12
COLO 205 = system: COLO 205
SF-539 = system: SF-539
OVCAR-4 = system: OVCAR-4
A549 = system: A549
786-0 = system: 786-0
HCT-15 = system: HCT-15
HT-29 = system: HT-29
HOP-18 = system: HOP-18
SW-620 = system: SW-620
SF-268 = system: SF-268
SK-MEL-28 = system: SK-MEL-28
OVCAR-8 = system: OVCAR-8
A498 = system: A498
HCC 2998 = system: HCC 2998
NCI-H23 = system: NCI-H23
DMS-273 = system: DMS-273
SNB-75 = system: SNB-75
UACC-257 = system: UACC-257
RPMI-8226 = system: RPMI-8226
DLD-1 = system: DLD-1
NCI-H226 = system: NCI-H226
DMS-114 = system: DMS-114
SK-MEL-5 = system: SK-MEL-5
M19-MEL = system: M19-MEL
TK-10 = system: TK-10
UACC-62 = system: UACC-62
SK-MEL-2 = system: SK-MEL-2
CCRF-CEM = system: CCRF-CEM
SF-295 = system: SF-295
SN12C = system: SN12C

Measured: GI50

O=c1[nH]nc2ccccc2c1Cc1ccccc1
> 100 µM: HCT-15
inactive: SNB-78 > 100 µM | OVCAR-5 > 100 µM | UO-31 > 100 µM | XF498 > 100 µM | U-251 > 100 µM | HOP-92 > 100 µM | MOLT-4 > 100 µM | HCT-116 > 100 µM | SK-OV-3 > 100 µM | K562 > 100 µM | NCI-H460 > 100 µM | EKVX > 100 µM | Malme-3M > 100 µM | OVCAR-3 > 100 µM | KM-20L2 > 100 µM | SNB-19 > 100 µM | M14 > 100 µM | LOX IMVI > 100 µM | ACHN > 100 µM | CAKI-1 > 100 µM | HOP-62 > 100 µM | IGROV-1 > 100 µM | KM12 > 100 µM | COLO 205 > 100 µM | SF-539 > 100 µM | OVCAR-4 > 100 µM | A549 > 100 µM | 786-0 > 100 µM | HT-29 > 100 µM | HOP-18 > 100 µM | SW-620 > 100 µM | SF-268 > 100 µM | SK-MEL-28 > 100 µM | OVCAR-8 > 100 µM | A498 > 100 µM | HCC 2998 59.3 µM | NCI-H23 > 100 µM | DMS-273 > 100 µM | SNB-75 96.6 µM | UACC-257 > 100 µM | RPMI-8226 > 100 µM | DLD-1 > 100 µM | NCI-H226 > 100 µM | DMS-114 > 100 µM | SK-MEL-5 > 100 µM | M19-MEL > 100 µM | TK-10 > 100 µM | UACC-62 > 100 µM | SK-MEL-2 > 100 µM | CCRF-CEM > 100 µM | SF-295 > 100 µM | SN12C > 100 µM

From ChEMBL document CHEMBL1201862, “PubChem BioAssay data set” (2004)
